The subject of this experiment is HBV. Put plainly: HBV-DNA Antiviral Assay Using HepG2.117 Cells (intracellular HBV DNA by qPCR). The class given is cell-based, hepatitis B virus (genotype D). As to conditions: Hepatitis B virus, HepG2.117. The method, boiled down: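 HepG2.117 cells (genotype D HBV, Tet-off) were induced by doxycycline withdrawal and treated for 3 days with 9 concentrations in 4-fold dilution, 2% DMSO final. Intracellular HBV DNA was measured by qPCR against a standard curve, with ATPlite viability read in parallel. EC50, EC90 and CC50 came from fits against the DMSO control.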
On the technique in general: Quantitative PCR measures a nucleic acid by following its amplification.
The EC50 is the concentration giving half of the maximal effect. Lower therefore signals higher potency in that assay. `C[C@@H]1Cn2c(c(C(=O)N[C@H](C)c3ccccc3)n(-c3ccc(OC4CC4)cc3)c2=O)CN1C(=O)c1ccc(Br)c(Cl)c1` (mixture of isomers) [Example 331, (6RS)-7-(4-bromo-3-chloro-benzoyl)-2-[4-(cyclopropoxy)phenyl]-6-methyl-3-oxo-N-[(1S)-1-phenylethyl]-6,8-dihydro-5H-imidazo[1,5-a]pyrazine-1-carboxamide]: the EC50 lay within 500 to 5000 nM. The same measure for `COc1ccc(-n2c(C(=O)NCc3ccc(=O)[nH]c3)c3n(c2=O)CCN(C(=O)c2ccc(Br)c(Cl)c2)C3)cc1` [Example 192, 7-(4-bromo-3-chloro-benzoyl)-2-(4-methoxyphenyl)-3-oxo-N-[(6-oxo-1H-pyridin-3-yl)methyl]-6,8-dihydro-5H-imidazo[1,5-a]pyrazine-1-carboxamide]: more than 5000 nM; for `CC(C)Oc1ccc(-n2c(C(=O)NCc3ccccc3)c3n(c2=O)CCN(C(=O)/C=C/c2cccc(Cl)c2Cl)C3)cc1` [Example 226, N-benzyl-7-[(E)-3-(2,3-dichlorophenyl)prop-2-enoyl]-2-(4-isopropoxyphenyl)-3-oxo-6,8-dihydro-5H-imidazo[1,5-a]pyrazine-1-carboxamide]: more than 5000 nM. The same measure for `O=C(NCc1ccccc1)c1c2n(c(=O)n1-c1ccc3occc3c1)CCN(C(=O)c1ccc(Cl)c(Cl)c1)C2` [Example 120, 2-(benzofuran-5-yl)-N-benzyl-7-(3,4-dichlorobenzoyl)-3-oxo-6,8-dihydro-5H-imidazo[1,5-a]pyrazine-1-carboxamide]: 500 to 5000 nM. In turn, `C[C@H](NC(=O)c1c2n(c(=O)n1-c1ccc(OC3CC3)cc1)CCN(C(=O)c1ccc(Br)c(Cl)c1)C2)c1ccc(OC(C)(C)C(N)=O)cc1F` (stereo in doubt) [Example 338, 7-(4-bromo-3-chloro-benzoyl)-2-[4-(cyclopropoxy)phenyl]-3-oxo-N-[rac-(1S)-1-[4-(2-amino-1,1-dimethyl-2-oxo-ethoxy)-2-fluoro-phenyl]ethyl]-6,8-dihydro-5H-imidazo[1,5-a]pyrazine-1-carboxamide] came in with an EC50 of 100 to 500 nM. Turning to `C[C@@H]1Cn2c(c3n(c2=O)C[C@H](F)CN(Cc2ccccc2)C3=O)CN1C(=O)c1ccc(Br)c(Cl)c1` (stereo in doubt) [Example 374, rac-(5R,11R)-13-benzyl-4-(4-bromo-3-chloro-benzoyl)-11-fluoro-5-methyl-4,7,9,13-tetrazatricyclo[7.5.0.0^2,7]tetradec-1-ene-8,14-dione], the EC50 lay in the range of 100 to 500 nM. As for `COc1ccc(-n2c(C(=O)NCc3cccc(C(F)(F)F)c3)c3n(c2=O)CCN(C(=O)c2ccc(Br)c(Cl)c2)C3)cc1` [Example 152, 7-(4-bromo-3-chloro-benzoyl)-2-(4-methoxyphenyl)-3-oxo-N-[[3-(trifluoromethyl)phenyl]methyl]-6,8-dihydro-5H-imidazo[1,5-a]pyrazine-1-carboxamide], the figure is 100 to 500 nM; as for `COc1ccc(CNC(=O)c2c3n(c(=O)n2-c2ccc(C#N)cc2)CCN(C(=O)c2ccc(Br)c(Cl)c2)C3)c(F)c1` [Example 164, 7-(4-bromo-3-chloro-benzoyl)-2-(4-cyanophenyl)-N-[(2-fluoro-4-methoxy-phenyl)methyl]-3-oxo-6,8-dihydro-5H-imidazo[1,5-a]pyrazine-1-carboxamide], 500 to 5000 nM; as for `O=C(c1ccc(Br)c(Cl)c1)N1CCn2c(c3n(c2=O)C[C@@H](CO)CN(Cc2ccccc2)C3=O)C1` (stereo in doubt) [Example 147, rac-(11S)-13-benzyl-4-(4-bromo-3-chloro-benzoyl)-11-(hydroxymethyl)-4,7,9,13-tetrazatricyclo[7.5.0.0^2,7]tetradec-1-ene-8,14-dione], 100 to 500 nM. Consider `CC(C)(NC(=O)c1c2n(c(=O)n1-c1ccccc1)CCN(C(=O)c1ccc(Br)c(Cl)c1)C2)c1ccccc1` [Example 30, 7-(4-bromo-3-chloro-benzoyl)-N-(1-methyl-1-phenyl-ethyl)-3-oxo-2-phenyl-6,8-dihydro-5H-imidazo[1,5-a]pyrazine-1-carboxamide], for which the EC50 is more than 5000 nM.

Consider `CC(C)Oc1ccc(-n2c(C(=O)NCc3ccccc3)c3n(c2=O)CCN(C(=O)c2ccc(Br)c(Cl)c2)C3)cc1` [Example 184, N-benzyl-7-(4-bromo-3-chloro-benzoyl)-2-(4-isopropoxyphenyl)-3-oxo-6,8-dihydro-5H-imidazo[1,5-a]pyrazine-1-carboxamide], for which the concentration giving a half-maximal response (EC50) was in the range of 100 to 500 nM. The compound `CC(C)Oc1ccc(-n2c(C(=O)NCc3ccc(S(C)(=O)=O)cc3)c3n(c2=O)CCN(C(=O)c2ccc(Br)c(Cl)c2)C3)cc1` [Example 227, 7-(4-bromo-3-chloro-benzoyl)-2-(4-isopropoxypehnyl)-N-[(4-methylsulfonylphenyl)methyl]-3-oxo-6,8-dihydro-5H-imidazo[1,5-a]pyrazine-1-carboxamide] yielded an EC50 of 500 to 5000 nM. The compound `O=C(NCc1ccccc1)c1c2n(c(=O)n1-c1ccc(N3CCO[C@H](C(F)(F)F)C3)cc1)CCN(C(=O)c1ccc(Br)c(Cl)c1)C2` [Example 415, N-benzyl-7-(4-bromo-3-chloro-benzoyl)-2-[4-(2,2-difluoro-1λ^2-fluora-8-oxa-5-azaspiro[2.5]octan-5-yl)phenyl]-3-oxo-6,8-dihydro-5H-imidazo[1,5-a]pyrazine-1-carboxamide] displayed a concentration for a half-maximal effect (EC50) of 100 to 500 nM.

The compound `COc1ccc(C(C)NC(=O)c2c3n(c(=O)n2-c2ccc(-n4cccn4)cc2)CCN(C(=O)c2ccc(Br)c(Cl)c2)C3)c(F)c1` (racemic) [Example 413, 7-(4-bromo-3-chloro-benzoyl)-3-oxo-2-(4-pyrazol-1-ylphenyl)-N-[rac-(1R)-1-(2-fluoro-4-methoxy-phenyl)ethyl]-6,8-dihydro-5H-imidazo[1,5-a]pyrazine-1-carboxamide] gave a 50% effective concentration (EC50) of less than 100 nM. As for `O=C(NCc1ccccc1-n1cccn1)c1c2n(c(=O)n1-c1ccc(OCC(F)(F)F)cc1)CCN(C(=O)c1ccc(Br)c(Cl)c1)C2` [Example 231, 7-(4-bromo-3-chloro-benzoyl)-3-oxo-N[(2-pyrazol-1-ylphenyl)methyl]-2-[4-(2,2,2-trifluoroethoxy)phenyl]-6,8-dihydro-5H-imidazo[1,5-a]pyrazine-1-carboxamide], the figure is less than 100 nM. The same measure for `COc1ccc(-n2c(-c3ccccc3)c3n(c2=O)CCN(C(=O)c2ccc(Cl)c(Cl)c2)C3)cc1` [Example 74, 7-(3,4-dichlorobenzoyl)-2-(4-methoxyphenyl)-1-phenyl-6,8-dihydro-5H-imidazo[1,5-a]pyrazin-3-one]: more than 5000 nM; for `CC(C)Oc1ccc(-n2c(-c3ncc(Cc4ccccc4)s3)c3n(c2=O)CCN(C(=O)c2ccc(Br)c(Cl)c2)C3)cc1` [Example 325, 1-(5-benzylthiazol-2-yl)-7-(4-bromo-3-chlorobenzoyl)-2-(4-isopropoxyphenyl)-5,6,7,8-tetrahydroimidazo[1,5-a]pyrazin-3(2H)-one]: more than 5000 nM; for `COc1ccc(-n2c(C(=O)NCc3ncccn3)c3n(c2=O)CCN(C(=O)c2ccc(Br)c(Cl)c2)C3)cc1` [Example 157, 7-(4-bromo-3-chloro-benzoyl)-2-(4-methoxyphenyl)-3-oxo-N-(pyrimidin-2-ylmethyl)-6,8-dihydro-5H-imidazo[1,5-a]pyrazine-1-carboxamide]: more than 5000 nM.

As for `O=C(NCc1ccccc1)c1c2n(c(=O)n1-c1ccc(Cl)cc1)CCN(C(=O)c1ccc(Br)c(Cl)c1)C2` [Example 26, N-benzyl-7-(4-bromo-3-chloro-benzoyl)-2-(4-chlorophenyl)-3-oxo-6,8-dihydro-5H-imidazo[1,5-a]pyrazine-1-carboxamide], the EC50 lay in the range of 500 to 5000 nM. The same measure for `C[C@H](NC(=O)c1c2n(c(=O)n1-c1ccc(OC3CC3)cc1)CCN(C(=O)c1ccc(Br)c(Cl)c1)C2)c1ccccc1` (racemic) [Example 168, 7-(4-bromo-3-chloro-benzoy)-2-[4-(cyclopropoxy)phenyl]-3-oxo-N-[rac-(1S)-1-phenylethyl]-6,8-dihydro-5H-imidazo[1,5-a]pyrazine-1-carboxamide]: 100 to 500 nM; for `COc1ccc(-n2c(C(=O)NCc3ccc(OCC(=O)O)cc3)c3n(c2=O)CCN(C(=O)c2ccc(Br)c(Cl)c2)C3)cc1` [Example 204, 2-[4-[[[7-(4-bromo-3-chloro-benzoyl)-2-(4-methoxyphenyl)-3-oxo-6,8-dihydro-5H-imidazo[1,5-a]pyrazine-1-carbonyl]amino]methyl]phenoxy]acetic acid]: more than 5000 nM; for `COc1ccc(CNC(=O)c2c3n(c(=O)n2-c2ccc(OCC(F)(F)F)cc2)CCN(C(=O)c2ccc(Br)c(Cl)c2)C3)c(F)c1` [Example 244, 7-(4-bromo-3-chloro-benzoyl)-N-[(2-fluoro-4-methoxy-phenyl)methyl]-3-oxo-2-[4-(2,2,2-trifluoroethoxy)phenyl]-6,8-dihydro-5H-imidazo[1,5-a]pyrazine-1-carboxamide]: 100 to 500 nM. As for `COc1cc2occc2cc1CNC(=O)c1c2n(c(=O)n1-c1ccc(OC(C)C)cc1)CCN(C(=O)c1ccc(Br)c(Cl)c1)C2` [Example 255, 7-(4-bromo-3-chloro-benzoyl)-2-(4-isopropoxyphenyl)-N-[(6-methoxybenzofuran-5-yl)methyl]-3-oxo-6,8-dihydro-5H-imidazo[1,5-a]pyrazine-1-carboxamide], the figure is 100 to 500 nM. The same measure for `CC(NC(=O)c1c2n(c(=O)n1-c1ccc(OC3CC3)cc1)CCN(C(=O)c1ccc(Br)c(Cl)c1)C2)c1cccc2nccnc12` (racemic) [Example 382, 7-(4-bromo-3-chloro-benzoyl)-2-[4-(cyclopropoxy)phenyl]-3-oxo-N-[rac-(1S)-1-quinoxalin-5-ylethyl]-6,8-dihydro-5H-imidazo[1,5-a]pyrazine-1-carboxamide]: less than 100 nM.

Values taken from US11591341B2 (ALIGOS THERAPEUTICS, INC., priority 2019, dated 2023).
